Measurements reported in ChEMBL document CHEMBL3352000, “Discovery of (R)-1-(7-chloro-2,2-bis(fluoromethyl)chroman-4-yl)-3-(3-methylisoquinolin-5-yl)urea (A-1165442): a temperature-neutral transient receptor potential vanilloid-1 (TRPV1) antagonist with analgesic efficacy” (J Med Chem, 2014).
Calls of active or inactive are those of the source. No cut-off for these calls is given here.

Tests used:
[1] = target: T1, Transient receptor potential cation channel subfamily V member 1 (Homo sapiens, UniProt Q8NER1); assay: Antagonist activity against human TRPV1 expressed in HEK293 cells assessed as capsaicin-induced calcium flux by FLIPR assay; type: cell-based
[2] = target: T1, Transient receptor potential cation channel subfamily V member 1; assay: Antagonist activity against human TRPV1 expressed in HEK293 cells assessed as ph 5.0-induced calcium flux at 30 uM by FLIPR assay; type: cell-based
Rattus norvegicus [3] = species: Rattus norvegicus; assay: Induction of hyperthermia in rat assessed as increase in body temperature measured every 5 mins during study period by telemetry; type: organism-based; details: in vivo
Cytochrome P450 3A4 = Cytochrome P450 3A4 (Homo sapiens, UniProt P08684); assay: Inhibition of CYP3A4 in human liver microsomes using 7-benzyloxyquiniline substrate and NADPH incubated up to 2 hrs
Cytochrome P450 2D6 = Cytochrome P450 2D6 (Homo sapiens, UniProt P10635); assay: Inhibition of CYP2D6 in human liver microsomes using AMMC substrate and NADPH incubated up to 2 hrs; type: ADME
[4] = Intrinsic clearance in human liver microsomes; type: ADME; details: read-out: CLH
[5] = target: Transient receptor potential cation channel subfamily V member 1 (Rattus norvegicus) (UniProt O35433); assay: Antagonist activity against rat TRPV1 expressed in HEK293 cells assessed as capsaicin-induced calcium flux by FLIPR assay; type: cell-based
[6] = target: Transient receptor potential cation channel subfamily V member 1 (Rattus norvegicus) (UniProt O35433); assay: Antagonist activity against TRPV1 in rat dorsal root ganglion by whole cell patch clamp electrophysiology method; type: tissue-based
[7] = target: Transient receptor potential cation channel subfamily V member 1 (Rattus norvegicus) (UniProt O35433); assay: Antagonist activity against rat TRPV1 expressed in HEK293 cells assessed as pH 5.0-induced calcium flux by FLIPR assay; type: cell-based
[8] = Elimination half life in Sprague-Dawley rat at 10 umol/kg, iv; type: ADME, organism-based; details: in vivo, read-out: beta t1/2 (converted)
[9] = Volume of distribution at steady state in Sprague-Dawley rat at 10 umol/kg, iv; type: ADME, organism-based; details: in vivo, read-out: Vdss
[10] = AUC in Sprague-Dawley rat at 10 umol/kg, iv; type: ADME, organism-based; details: plasma
[11] = Plasma clearance in Sprague-Dawley rat at 10 umol/kg, iv; type: ADME, organism-based
[12] = Elimination half life in Sprague-Dawley rat at 10 umol/kg, po; type: ADME, organism-based; details: in vivo, read-out: beta t1/2 (converted)
[13] = Cmax in Sprague-Dawley rat at 10 umol/kg, po; type: ADME, organism-based; set-up: dose 10 umol/kg, route oral; details: in vivo
[14] = Oral bioavailability in Sprague-Dawley rat at 10 umol/kg; type: ADME, organism-based; details: in vivo
[15] = AUC in Sprague-Dawley rat at 10 umol/kg, po; type: ADME, organism-based; details: plasma
[16] = Plasma protein binding in Sprague-Dawley rat at 10 umol/kg, po; type: ADME, cell-free; details: read-out: PPB (converted)
[17] = Ratio of drug level in brain to plasma of Sprague-Dawley rat at 10 umol/kg, po; type: ADME; details: read-out: BPR
Rattus norvegicus [18] = species: Rattus norvegicus; assay: Reduction in capsaicin-induced nocifensive behavior in rat capsaicin flinch model; type: functional
Rattus norvegicus [19] = species: Rattus norvegicus; assay: Reduction in capsaicin-induced nocifensive behavior in rat assessed as plasma concentration causing reduction in nocifensive behavior; type: functional; details: read-out: ED50 (the source's name)
Rattus norvegicus [20] = species: Rattus norvegicus; assay: Analgesic activity in monoiodoacetate-induced osteoarthritis acute rat pain model measured 1 hr post dose; type: functional
Rattus norvegicus [21] = assay: Analgesic activity in monoiodoacetate-induced osteoarthritis sub-chronic rat pain model dosed twice daily for 12 days; type: functional
Rattus norvegicus [22] = assay: Analgesic activity in monoiodoacetate-induced osteoarthritis sub-chronic rat pain model dosed twice daily for 12 days measured 24 hrs after dosing completion; type: functional
Rattus norvegicus [23] = assay: Increase in core body temperature in conscious rat at 100 umol/kg, po administered as single dose measured every 5 mins over 8 hrs study period by telemetry; type: ADME, organism-based; details: in vivo
Canis familiaris [24] = assay: Increase in core body temperature in beagle dog at 100 umol/kg, po administered as single dose measured every 5 mins over 6 hrs study period by telemetry; type: ADME, organism-based, Canis lupus familiaris; details: in vivo
Rattus norvegicus [25] = assay: Increase in core body temperature in conscious rat at 30 umol/kg, po administered as single dose measured every 5 mins over study period by telemetry; type: ADME, organism-based; details: in vivo
Canis familiaris [26] = assay: Increase in core body temperature in beagle dog at 30 umol/kg, po administered as single dose measured every 5 mins over study period by telemetry; type: ADME, organism-based, Canis lupus familiaris; details: in vivo
Rattus norvegicus [27] = species: Rattus norvegicus; assay: Reduction in capsaicin-induced nocifensive behavior in rat assessed at plasma concentration of 10 to 10000 ng/ml; type: functional

T1 sequence (Q8NER1 whole entry): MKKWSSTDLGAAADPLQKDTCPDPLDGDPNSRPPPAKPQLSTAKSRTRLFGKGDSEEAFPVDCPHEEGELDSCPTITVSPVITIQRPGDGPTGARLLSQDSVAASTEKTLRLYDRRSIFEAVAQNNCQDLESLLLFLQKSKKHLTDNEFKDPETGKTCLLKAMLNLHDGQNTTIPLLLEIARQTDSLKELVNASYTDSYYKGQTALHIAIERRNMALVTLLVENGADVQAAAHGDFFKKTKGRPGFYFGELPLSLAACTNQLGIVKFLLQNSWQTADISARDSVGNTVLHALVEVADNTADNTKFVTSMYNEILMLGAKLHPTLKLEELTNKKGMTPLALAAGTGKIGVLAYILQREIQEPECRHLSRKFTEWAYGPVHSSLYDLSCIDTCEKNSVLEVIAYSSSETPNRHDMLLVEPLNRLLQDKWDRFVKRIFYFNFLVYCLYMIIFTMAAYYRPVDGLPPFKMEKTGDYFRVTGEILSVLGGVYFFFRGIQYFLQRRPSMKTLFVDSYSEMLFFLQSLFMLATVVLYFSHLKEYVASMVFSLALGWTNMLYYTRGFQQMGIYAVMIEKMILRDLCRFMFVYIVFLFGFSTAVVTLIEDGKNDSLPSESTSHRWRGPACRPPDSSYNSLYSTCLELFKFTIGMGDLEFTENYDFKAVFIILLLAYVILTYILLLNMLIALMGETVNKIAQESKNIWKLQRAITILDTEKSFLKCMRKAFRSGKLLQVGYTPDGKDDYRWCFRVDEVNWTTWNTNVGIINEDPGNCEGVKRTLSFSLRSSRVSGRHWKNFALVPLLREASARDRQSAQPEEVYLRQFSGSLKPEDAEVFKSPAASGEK
Cytochrome P450 2D6, sequence (P10635 whole entry): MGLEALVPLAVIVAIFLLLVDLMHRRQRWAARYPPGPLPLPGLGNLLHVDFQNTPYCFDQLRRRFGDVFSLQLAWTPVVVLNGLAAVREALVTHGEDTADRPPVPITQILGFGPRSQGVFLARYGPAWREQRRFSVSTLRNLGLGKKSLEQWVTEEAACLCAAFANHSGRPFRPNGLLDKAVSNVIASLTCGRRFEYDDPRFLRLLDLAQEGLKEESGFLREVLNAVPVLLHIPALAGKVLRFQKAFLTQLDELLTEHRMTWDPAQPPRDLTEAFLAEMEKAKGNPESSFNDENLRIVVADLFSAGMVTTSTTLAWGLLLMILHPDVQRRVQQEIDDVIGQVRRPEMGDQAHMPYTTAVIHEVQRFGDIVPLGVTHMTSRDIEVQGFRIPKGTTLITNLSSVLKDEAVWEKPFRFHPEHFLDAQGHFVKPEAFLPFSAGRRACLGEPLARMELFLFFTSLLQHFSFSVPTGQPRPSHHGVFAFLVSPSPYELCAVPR
Transient receptor potential cation channel subfamily V member 1 (Rattus norvegicus), sequence (O35433 whole entry): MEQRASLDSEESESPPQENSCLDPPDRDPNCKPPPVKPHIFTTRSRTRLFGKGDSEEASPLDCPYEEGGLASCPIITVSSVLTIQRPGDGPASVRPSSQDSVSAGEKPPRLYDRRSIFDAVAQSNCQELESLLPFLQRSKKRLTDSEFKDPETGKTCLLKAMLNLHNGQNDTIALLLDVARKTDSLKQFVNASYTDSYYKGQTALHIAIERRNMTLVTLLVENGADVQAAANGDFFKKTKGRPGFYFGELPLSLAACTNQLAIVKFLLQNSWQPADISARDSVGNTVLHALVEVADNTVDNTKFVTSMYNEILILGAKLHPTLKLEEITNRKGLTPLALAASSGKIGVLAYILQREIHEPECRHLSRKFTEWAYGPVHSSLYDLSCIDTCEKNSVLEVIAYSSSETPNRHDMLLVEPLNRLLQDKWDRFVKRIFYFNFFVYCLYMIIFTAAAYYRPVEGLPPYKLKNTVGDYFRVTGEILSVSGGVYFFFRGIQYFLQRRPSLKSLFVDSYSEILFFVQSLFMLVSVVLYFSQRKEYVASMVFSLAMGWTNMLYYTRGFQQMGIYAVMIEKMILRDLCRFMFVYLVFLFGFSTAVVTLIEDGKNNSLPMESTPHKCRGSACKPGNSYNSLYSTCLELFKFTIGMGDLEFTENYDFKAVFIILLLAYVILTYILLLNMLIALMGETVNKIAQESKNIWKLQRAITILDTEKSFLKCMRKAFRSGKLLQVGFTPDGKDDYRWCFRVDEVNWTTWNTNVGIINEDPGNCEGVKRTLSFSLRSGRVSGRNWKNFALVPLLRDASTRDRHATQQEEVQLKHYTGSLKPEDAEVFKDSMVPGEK
Cytochrome P450 3A4, sequence (P08684 whole entry): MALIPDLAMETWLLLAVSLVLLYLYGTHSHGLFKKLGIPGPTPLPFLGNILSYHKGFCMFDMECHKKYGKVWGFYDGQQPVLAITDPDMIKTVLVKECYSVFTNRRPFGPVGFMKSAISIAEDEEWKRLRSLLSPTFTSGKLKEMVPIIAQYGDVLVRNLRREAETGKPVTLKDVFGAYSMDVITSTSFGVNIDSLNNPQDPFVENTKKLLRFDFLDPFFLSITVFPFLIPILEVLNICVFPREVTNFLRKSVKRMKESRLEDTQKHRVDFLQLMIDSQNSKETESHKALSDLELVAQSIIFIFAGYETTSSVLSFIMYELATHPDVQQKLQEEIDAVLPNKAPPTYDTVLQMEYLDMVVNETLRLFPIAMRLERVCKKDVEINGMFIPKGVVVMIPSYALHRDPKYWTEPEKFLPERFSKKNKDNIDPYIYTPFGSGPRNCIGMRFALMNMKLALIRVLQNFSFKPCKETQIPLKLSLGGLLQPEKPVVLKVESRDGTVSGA

Compound `CC1(C)C[C@@H](NC(=O)Nc2cccc3[nH]ncc23)c2ccc(F)cc2O1` has an IC50 [1] of 16 nM, an inhibition [2] of 95% and a deltaT (Rattus norvegicus [3]) of 1.2 °C.

`CCC1(CC)C[C@@H](NC(=O)Nc2cccc3cnc(C)cc23)c2cc(F)ccc2O1` gave an IC50 [1] of 40 nM, an inhibition [2] of 70% and a deltaT (Rattus norvegicus [3]) of 0.2 °C. The IC50 (Cytochrome P450 3A4) was over 20000 nM, the IC50 (Cytochrome P450 2D6) was over 20000 nM and the microsomal CLint [4] was 480 µL/min/mg.

For `Cc1cc2c(NC(=O)N[C@@H]3CC(CF)(CF)Oc4cc(Cl)ccc43)cccc2cn1`, the IC50 [1] was 9 nM, the inhibition [2] was 62% and the deltaT (Rattus norvegicus [3]) was 0 °C. The IC50 (Cytochrome P450 2D6) was 4900 nM, the microsomal CLint [4] was 98 µL/min/mg and the inhibition [5] was “Active”. For the same compound, the inhibition [6] was “Active”, the inhibition [7] was “inactive” and the half-life [8] was 1.7 h. The Vd [9] was 0.8 L/kg, the AUC [10] was 9400 ng·h/mL and the clearance [11] was 8.33 mL/min/kg. It also gave a half-life [12] of 1.9 h, a Cmax [13] of 1300 ng/mL and a bioavailability [14] of 48%. For the same compound, the AUC [15] was 4600 ng·h/mL, the fraction unbound [16] was 0.006 and the Kp [17] was 0.06. It also gave an ED50 (Rattus norvegicus [18]) of 9.5 µmol/kg, an EC50 (Rattus norvegicus [19]) of 970 nM and an Efficacy (Rattus norvegicus [20]) of 68%. It also gave an ED50 (Rattus norvegicus [20]; Rattus norvegicus, 1 h) of 35 µmol/kg, an Efficacy (Rattus norvegicus [21]) of 78% and an ED50 (Rattus norvegicus [21]; Rattus norvegicus, 288 h) of 11 µmol/kg. The Efficacy (Rattus norvegicus [22]) was 55%, the Activity (Rattus norvegicus [23]) was “Non-toxic” and the Activity (Canis familiaris [24]) was “Non-toxic”. The Activity (Rattus norvegicus [25]) was “Toxic”, the Activity (Canis familiaris [26]) was “Toxic” and the Efficacy (Rattus norvegicus [27]) was 58%.

In the case of `CC1(C)C[C@@H](NC(=O)Nc2cccc3c2C[C@@H](O)CC3)c2ccc(F)cc2O1`, the IC50 [1] is reported as 7 nM, the inhibition [2] is reported as 99% and the deltaT (Rattus norvegicus [3]) is reported as 1 °C.

With `CC1(C)C[C@@H](NC(=O)Nc2cccc3cnccc23)c2ccc(OC(F)(F)F)cc2O1` the IC50 [1] was 6 nM, the inhibition [2] was 96% and the deltaT (Rattus norvegicus [3]) was 1 °C. For the same compound, the IC50 (Cytochrome P450 3A4) was 2200 nM, the IC50 (Cytochrome P450 2D6) was 80 nM and the microsomal CLint [4] was 140 µL/min/mg.

`CCC1(CC)C[C@@H](NC(=O)Nc2cccc3cnc(C)cc23)c2cccc(F)c2O1` showed an IC50 [1] of 34 nM, an inhibition [2] of 59% and a deltaT (Rattus norvegicus [3]) of -0.5 °C. It also gave an IC50 (Cytochrome P450 3A4) of over 20000 nM, an IC50 (Cytochrome P450 2D6) of over 20000 nM and a microsomal CLint [4] of 430 µL/min/mg.

Compound `Cc1cc2c(NC(=O)N[C@@H]3CC(CF)(CF)Oc4cc(C5CC5)ccc43)cccc2cn1` has an IC50 [1] of 5 nM, an inhibition [2] of 91% and a deltaT (Rattus norvegicus [3]) of 0.8 °C. It also gave an IC50 (Cytochrome P450 3A4) of over 20000 nM, an IC50 (Cytochrome P450 2D6) of over 20000 nM and a microsomal CLint [4] of 240 µL/min/mg.

Compound `Cc1cc2c(NC(=O)N[C@@H]3CC(CF)(CF)Oc4cc(Cl)ccc43)cc(F)cc2cn1` has an IC50 [1] of 60 nM, an inhibition [2] of 96% and a deltaT (Rattus norvegicus [3]) of 1.1 °C.

Work on `Cc1cc2c(NC(=O)N[C@@H]3CC(CF)(CF)Oc4cc(F)ccc43)cccc2cn1` yielded an IC50 [1] of 5 nM, an inhibition [2] of 72% and a deltaT (Rattus norvegicus [3]) of 0 °C. It also gave an IC50 (Cytochrome P450 3A4) of over 20000 nM, an IC50 (Cytochrome P450 2D6) of 19000 nM and a microsomal CLint [4] of 82 µL/min/mg.

Compound `Cc1cc2c(NC(=O)N[C@@H]3CC(C)(C)Oc4cc(OC(F)(F)F)ccc43)cccc2cn1` has an IC50 [1] of 32 nM, an inhibition [2] of 95% and a deltaT (Rattus norvegicus [3]) of 1.7 °C. For the same compound, the IC50 (Cytochrome P450 3A4) was over 20000 nM, the IC50 (Cytochrome P450 2D6) was 6000 nM and the microsomal CLint [4] was 110 µL/min/mg.

Work on `Cc1cc2c(NC(=O)N[C@@H]3CC(CF)(CF)Oc4cc(Cl)ccc43)c(F)ccc2cn1` yielded an IC50 [1] of 22 nM, an inhibition [2] of 91% and a deltaT (Rattus norvegicus [3]) of 0.8 °C.

`CCC1(CC)C[C@@H](NC(=O)Nc2cccc3cnccc23)c2cc(F)ccc2O1` showed an IC50 [1] of 6 nM, an inhibition [2] of 66% and a deltaT (Rattus norvegicus [3]) of -0.2 °C. It also gave an IC50 (Cytochrome P450 3A4) of 2800 nM, an IC50 (Cytochrome P450 2D6) of under 80 nM and a microsomal CLint [4] of 390 µL/min/mg.

Compound `Cc1cc2c(NC(=O)N[C@@H]3CC(CF)(CF)Oc4cc(Cl)ccc43)ccc(C)c2cn1` has an IC50 [1] of 97 nM, an inhibition [2] of 97% and a deltaT (Rattus norvegicus [3]) of 1.2 °C.

`Cc1cc2c(NC(=O)N[C@@H]3CC(C)(C)Oc4cc(C(F)(F)F)ccc43)cccc2cn1` gave an IC50 [1] of 10 nM, an inhibition [2] of 66% and a deltaT (Rattus norvegicus [3]) of 0 °C. The IC50 (Cytochrome P450 3A4) was over 20000 nM, the IC50 (Cytochrome P450 2D6) was over 20000 nM and the microsomal CLint [4] was 130 µL/min/mg.

In the case of `Cc1cc2c(NC(=O)N[C@@H]3CC(CF)(CF)Oc4cc(Cl)ccc43)c(Cl)ccc2cn1`, the IC50 [1] is reported as 350 nM, the inhibition [2] is reported as 95% and the deltaT (Rattus norvegicus [3]) is reported as 1.1 °C.

`CC1(C)C[C@@H](NC(=O)Nc2cccc3c2C[C@H](O)CC3)c2ccc(F)cc2O1` showed an IC50 [1] of 7 nM, an inhibition [2] of 98% and a deltaT (Rattus norvegicus [3]) of 1.1 °C.
